Consider nine molecules from US9840508B2, “N-acyl-(3-substituted)-(8-methyl)-5,6-dihydro-[1,2,4]triazolo[4,3-a] pyrazines as selective NK-3 receptor antagonists, pharmaceutical composition, methods for use in NK-3 receptor-mediated disorders” (EUROSCREEN SA, priority 2013, dated 2017).

The subject of one data set is plasma protein. Kind of data set: Determination of plasma protein binding (rapid equilibrium dialysis). Type of data set: in vitro ADME. Conditions: 4 hours at 37° C. An excerpt: Determination of Plasma Protein Binding
The pharmacokinetic and pharmacodynamic properties of chemicals/drugs are largely a function of the reversible binding of chemicals to plasma or serum proteins. Generally, only the unbound or “free fraction” of a drug is available for diffusion or transport across cell membranes, and for interaction with a pharmacological/toxicological target. Consequently, the extent of the plasma protein binding (PPB) of a compound influences its action as well as its distribution and elimination.
The determination of plasma protein binding (PPB) of a compound is enabled by equilibrium dialysis, an accepted and standard method for reliable estimation of the non-bound drug fraction in plasma. RED (Rapid Equilibrium Dialysis) device insert is made of two side-by-side chambers separated by an O-ring-sealed vertical cylinder of dialysis membrane (MWCO˜8,000). Plasma containing drug (at 5 μM or blood concentrations otherwise corresponding to efficacious doses, if known) is added to one chamber while buffer is added to the second. After 4 hours incubation at 37° C. under shaking, an aliquot is removed from each chamber and analyzed by a LC-MS/MS procedure enables the determination of both free and bound drug.
The percentages provided in Table 4 represent for the compounds of the invention the bound drug fraction to the plasma protein. The “free fraction” may be calculated as 100%−% rPPB (i.e. the complementary percentage of that disclosed in Table 4, corresponding to the drug concentration that is unbound and therefore available to engage biological target and elicit pharmacological activity).
In general terms: Equilibrium dialysis compares concentrations on both sides of a semipermeable membrane.

Data set [1] deals with T1, human NK-3 receptor (Homo sapiens (Human), UniProt P29371). Kind of data set: 3H-SB222200 binding competition assay with human NK-3 receptor. Here is the method: The affinity of compounds of the invention for the human NK-3 receptor was determined by measuring the ability of compounds of the invention to competitively and reversibly displace a well-characterized NK-3 radioligand in a concentration-dependent manner.
T1 sequence (P29371 whole entry): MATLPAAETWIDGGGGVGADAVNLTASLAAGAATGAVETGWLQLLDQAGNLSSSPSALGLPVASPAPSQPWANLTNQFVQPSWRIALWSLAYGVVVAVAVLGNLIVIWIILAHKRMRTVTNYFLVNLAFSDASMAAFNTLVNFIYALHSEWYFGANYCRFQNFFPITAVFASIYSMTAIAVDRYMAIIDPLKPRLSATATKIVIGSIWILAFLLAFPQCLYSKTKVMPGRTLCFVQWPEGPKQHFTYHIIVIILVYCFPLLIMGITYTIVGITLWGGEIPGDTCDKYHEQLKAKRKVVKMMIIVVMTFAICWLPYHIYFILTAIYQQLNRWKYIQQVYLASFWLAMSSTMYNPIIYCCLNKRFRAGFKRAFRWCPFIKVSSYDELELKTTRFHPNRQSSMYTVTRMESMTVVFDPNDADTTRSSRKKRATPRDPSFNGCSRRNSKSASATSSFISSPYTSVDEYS
^3H-SB222200 Binding Competition Assay with Human NK-3 Receptor
The ability of compounds of the invention to inhibit the binding of the NK-3 receptor selective antagonist ^3H-SB222200 was assessed by an in vitro radioligand binding assay. Membranes were prepared from Chinese hamster ovary recombinant cells stably expressing the human NK-3 receptor. The membranes were incubated with 5 nM ^3H-SB222200 (ARC) in a HEPES 25 mM/NaCl 0.1M/CaCl2 1 mM/MgCl2 5 mM/BSA 0.5%/Saponin 10 μg/ml buffer at pH 7.4 and various concentrations of compounds of the invention. The amount of ^3H-SB222200 bound to the receptor was determined after filtration by the quantification of membrane associated radioactivity using the TopCount-NXT reader (Packard).

For a further data set, the target named is human NK-2 receptor (Homo sapiens (Human), UniProt P21452). Kind of data set: Selectivity binding assay, human NK-2 ([125I]-Neurokinin A). The following applies: CHO cell membranes; 0.1 nM [125I]-Neurokinin A; read-out: hNK-2 (Ki). Here is the method:
(§1) Selectivity of the compounds of the invention was determined over the other human NK receptors, namely NK-1 and NK-2 receptors.
The affinity of compounds of the invention for the NK-2 receptor was evaluated in CHO recombinant cells which express the human NK-2 receptor. Membrane suspensions were prepared from these cells. The following radioligand [^125I]-Neurokinin A (PerkinElmer Cat#NEX252) was used in this assay. Binding assays were performed in a 25 mM HEPES/1 mM CaCl2/5 mM MgCl2/0.5% BSA/10 μg/ml saponin, at pH 7.4. Binding assays consisted of 25 μl of membrane suspension (approximately 3.75 μg of protein/well in a 96 well plate), 50 μl of compound or reference ligand (Neurokinin A) at increasing concentrations (diluted in assay buffer) and 0.1 nM [^125I]-Neurokinin A. The plate was incubated 60 min at 25° C. in a water bath and then filtered over GF/C filters (Perkin Elmer, 6005174, presoaked in assay buffer without saponine for 2 h at room temperature) with a Filtration unit (Perkin Elmer). The radioactivity retained on the filters was measured by using the TopCount-NXT reader (Packard). Competition curves were obtained for compounds of the invention and the concentrations of compounds which displaced 50% of bound radioligand (IC50) were determined and then apparent inhibition constant Ki values were calculated by the following equation: Ki=IC50/(1+[L]/KD) where [L] is the concentration of free radioligand and KD is its dissociation constant at the receptor, derived from saturation binding experiments (Cheng and Prusoff, 1973).

The next data set has as its target human NK-1 receptor (Homo sapiens (Human), UniProt P25103). Description: Selectivity binding assay, human NK-1 ([3H] substance P). Conditions: CHO cell membranes; 2 nM [3H] substance P; read-out: hNK-1 (Ki). Here is the method: as §1
The affinity of compounds of the invention for the NK-1 receptor was evaluated in CHO recombinant cells which express the human NK-1 receptor. Membrane suspensions were prepared from these cells. The following radioligand: [^3H] substance P (PerkinElmer Cat#NET111520) was used in this assay. Binding assays were performed in a 50 mM Tris/5 mM MnCl2/150 mM NaCl/0.1% BSA at pH 7.4. Binding assays consisted of 25 μl of membrane suspension (approximately 5 μg of protein/well in a 96 well plate), 50 μl of compound or reference ligand (Substance P) at increasing concentrations (diluted in assay buffer) and 2 nM [^3H] substance P. The plate was incubated 60 min at 25° C. in a water bath and then filtered over GF/C filters (Perkin Elmer, 6005174, presoaked in 0.5% PEI for 2 h at room temperature) with a Filtration unit (Perkin Elmer). The radioactivity retained on the filters was measured by using the TopCount-NXT reader (Packard). Competition curves were obtained for compounds of the invention and the concentrations of compounds which displaced 50% of bound radioligand (IC50) were determined and then apparent inhibition constant Ki values were calculated by the following equation: Ki=IC50/(1+[L]/KD) where [L] is the concentration of free radioligand and KD is its dissociation constant at the receptor, derived from saturation binding experiments (Cheng and Prusoff, 1973).

Data set [2] deals with T1, human NK-3 receptor. Kind of data set: Aequorin functional assay with human NK-3 receptor (antagonist testing). Type of data set: cell-based. Conditions: CHO cells expressing human NK-3 receptor; agonist NKA at EC80 (3 nM); read-out: Functional assay: Aequorin assay with human NK-3 receptor hNK-3 - AEQ (antagonist IC50). Here is the method:
Aequorin Assay with Human NK-3 Receptor
Changes in intracellular calcium levels are a recognized indicator of G protein-coupled receptor activity. The efficacy of compounds of the invention to inhibit NKA-mediated NK-3 receptor activation was assessed by an in vitro Aequorin functional assay. Chinese Hamster Ovary recombinant cells expressing the human NK-3 receptor and a construct that encodes the photoproteinapoaequorin were used for this assay. In the presence of the cofactor coelenterazine, apoaequorin emits a measurable luminescence that is proportional to the amount of intracellular (cytoplasmic) free calcium.
The antagonist activity of compounds of the invention is measured following pre-incubation (3 minutes) of the compound (at various concentrations) with the cells, followed by addition of the reference agonist (NKA) at a final concentration equivalent to the EC80 (3 nM) and recording of emitted light (FDSS 6000 Hamamatsu) over the subsequent 90-second period. The intensity of the emitted light is integrated using the reader software. Compound antagonist activity is measured based on the concentration-dependent inhibition of the luminescence response to the addition of Neurokinin A.
The IC50 values shown in Table 2 indicate that compounds of the invention are potent NK-3 antagonist compounds.

Setting [3] is: CHO cell membranes, 5 nM 3H-SB222200, Table 2, read-out: Competitive binding assay with human NK-3 receptor hNK-3 (Ki).
[4] abbreviates: Table 3 (selectivity table), read-out: hNK-3 (Ki).

Where two headings read alike, the source gives them in different places.

human NK-1 receptor, sequence (P25103 whole entry): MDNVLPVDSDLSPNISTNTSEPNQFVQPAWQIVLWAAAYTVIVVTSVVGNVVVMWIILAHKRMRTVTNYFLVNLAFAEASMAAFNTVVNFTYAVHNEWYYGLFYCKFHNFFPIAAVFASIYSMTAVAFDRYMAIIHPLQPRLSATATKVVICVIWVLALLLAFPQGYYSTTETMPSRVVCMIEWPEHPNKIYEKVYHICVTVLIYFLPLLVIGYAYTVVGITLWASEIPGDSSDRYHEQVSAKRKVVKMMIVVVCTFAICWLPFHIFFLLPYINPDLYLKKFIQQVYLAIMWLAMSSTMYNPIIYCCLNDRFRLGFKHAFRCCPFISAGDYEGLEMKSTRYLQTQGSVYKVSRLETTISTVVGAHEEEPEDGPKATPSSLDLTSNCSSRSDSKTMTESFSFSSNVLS
human NK-2 receptor, sequence (P21452 whole entry): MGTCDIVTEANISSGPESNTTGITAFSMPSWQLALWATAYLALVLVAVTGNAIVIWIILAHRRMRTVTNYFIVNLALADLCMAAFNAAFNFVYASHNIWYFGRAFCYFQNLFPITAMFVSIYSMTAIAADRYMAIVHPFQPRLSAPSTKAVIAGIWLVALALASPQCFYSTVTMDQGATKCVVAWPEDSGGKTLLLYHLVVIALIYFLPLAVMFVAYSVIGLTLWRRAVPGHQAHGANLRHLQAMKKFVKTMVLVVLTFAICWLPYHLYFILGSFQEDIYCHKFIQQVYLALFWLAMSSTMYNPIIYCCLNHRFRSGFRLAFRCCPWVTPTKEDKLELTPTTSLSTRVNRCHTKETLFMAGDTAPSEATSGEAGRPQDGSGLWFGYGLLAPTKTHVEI

As a reminder, the Ki is the dissociation constant of the complex between target and ligand, obtained from inhibition or displacement. For orientation: IC50 means the concentration that gives 50% inhibition. Consider `Cc1ccc(-c2nnc3n2CCN(C(=O)c2ccc(F)c(F)c2)[C@@H]3C)o1` [Compound 5, (R)-(3,4-difluorophenyl)(8-methyl-3-(5-methylfuran-2-yl)-5,6-dihydro-[1,2,4]triazolo[4,3-a]pyrazin-7(8H)-yl)methanone], for which the “Exposure (% rPPB), bound drug fraction to the plasma protein” value (“Exposure (% rPPB), bound drug fraction” for short) with plasma protein was 27%. The inhibition constant Ki on human NK-3 receptor [1] (setting [3]) was 42 nM; at human NK-3 receptor [1] (setting [4]), 42 nM; at human NK-2 receptor, 31000 nM; on human NK-1 receptor it was over 30000 nM. The concentration for half-maximal inhibition (IC50) at human NK-3 receptor [2] came to 52 nM.
Consider `Cc1ccc(-c2nnc3n2CCN(C(=O)c2ccc(Cl)c(Cl)c2)[C@@H]3C)o1` [Compound 11, (R)-(3,4-dichlorophenyl)(8-methyl-3-(5-methylfuran-2-yl)-5,6-dihydro-[1,2,4]triazolo[4,3-a]pyrazin-7(8H)-yl)methanone], for which the “Exposure (% rPPB), bound drug fraction” value in the data set with plasma protein is listed as 76%. For the same molecule, the Ki at human NK-3 receptor [1] (setting [3]) stood at 27 nM; at human NK-3 receptor [1] (setting [4]) it was 27 nM; on human NK-2 receptor, 4200 nM; on human NK-1 receptor, 6900 nM. In addition, the IC50 on human NK-3 receptor [2] is 36 nM.
In the case of `C[C@@H]1c2nnc(-c3csc(C(F)(F)F)n3)n2CCN1C(=O)c1ccc(F)c(Cl)c1` [Compound 16, (R)-(3-chloro-4-fluorophenyl)(8-methyl-3-(2-(trifluoromethyl)thiazol-4-yl)-5,6-dihydro-[1,2,4]triazolo[4,3-a]pyrazin-7(8H)-yl)methanone], the “Exposure (% rPPB), bound drug fraction” value with plasma protein is 82%. Further, the Ki amounted to 14 nM at human NK-3 receptor [1] (setting [3]), 14 nM on human NK-3 receptor [1] (setting [4]), 1500 nM on human NK-2 receptor and 9400 nM at human NK-1 receptor. For the same molecule, the concentration for half-maximal inhibition (IC50) at human NK-3 receptor [2] stood at 23 nM.
Take `C[C@@H]1c2nnc(-c3csc(C(F)(F)F)n3)n2CCN1C(=O)c1ccc(F)c(F)c1F` [Compound 14, (R)-(8-methyl-3-(2-(trifluoromethyl)thiazol-4-yl)-5,6-dihydro-[1,2,4]triazolo[4,3-a]pyrazin-7(8H)-yl)(2,3,4-trifluorophenyl)methanone]: the “Exposure (% rPPB), bound drug fraction” value in the data set on plasma protein is on record as 69%. Besides, the Ki at human NK-3 receptor [1] (setting [3]) was 40 nM; on human NK-3 receptor [1] (setting [4]), 40 nM; on human NK-2 receptor, 15000 nM; on human NK-1 receptor, 28000 nM. The IC50 at human NK-3 receptor [2] was 59 nM.
Take `Cc1ccc(-c2nnc3n2CCN(C(=O)c2ccc(Cl)cc2)[C@@H]3C)o1` [Compound 10, (R)-(4-chlorophenyl)(8-methyl-3-(5-methylfuran-2-yl)-5,6-dihydro-[1,2,4]triazolo[4,3-a]pyrazin-7(8H)-yl)methanone]: in the data set with plasma protein, the “Exposure (% rPPB), bound drug fraction” value is given as 56%. The Ki stood at 36 nM on human NK-3 receptor [1] (setting [3]), 36 nM at human NK-3 receptor [1] (setting [4]), 23000 nM at human NK-2 receptor and 25000 nM on human NK-1 receptor. Moreover, the IC50 at human NK-3 receptor [2] was determined as 74 nM.
Regarding `Cc1ccc(-c2nnc3n2CCN(C(=O)c2ccc(F)c(Cl)c2)[C@@H]3C)o1` [Compound 8, (R)-(3-chloro-4-fluorophenyl)(8-methyl-3-(5-methylfuran-2-yl)-5,6-dihydro-[1,2,4]triazolo[4,3-a]pyrazin-7(8H)-yl)methanone], the “Exposure (% rPPB), bound drug fraction” value in the data set with plasma protein was 47%. The Ki was 44 nM at human NK-3 receptor [1] (setting [3]), 44 nM on human NK-3 receptor [1] (setting [4]), 9100 nM on human NK-2 receptor and 18000 nM at human NK-1 receptor. Moreover, on human NK-3 receptor [2], the IC50 is 62 nM.
For the molecule `C[C@@H]1c2nnc(-c3csc(C(F)(F)F)n3)n2CCN1C(=O)c1ccc(Cl)cc1` [Compound 18, (R)-(4-chlorophenyl)(8-methyl-3-(2-(trifluoromethyl)thiazol-4-yl)-5,6-dihydro-[1,2,4]triazol[4,3-a]pyrazin-7(8H)-yl)methanone], in the data set on plasma protein, the “Exposure (% rPPB), bound drug fraction” value came to 78%. The Ki was 21 nM at human NK-3 receptor [1] (setting [3]), 21 nM on human NK-3 receptor [1] (setting [4]), 5900 nM on human NK-2 receptor and 15000 nM on human NK-1 receptor. Also, the IC50 at human NK-3 receptor [2] turned out to be 31 nM.
Turning to `C[C@@H]1c2nnc(-c3csc(C(F)(F)F)n3)n2CCN1C(=O)c1ccc(F)c(F)c1` [Compound 13, (R)-(3,4-difluorophenyl)(8-methyl-3-(2-(trifluoromethyl)thiazol-4-yl)-5,6-dihydro-[1,2,4]triazolo[4,3-a]pyrazin-7(8H)-yl)methanone], the “Exposure (% rPPB), bound drug fraction” value with plasma protein turned out to be 51%. Moreover, the inhibitory constant (Ki) is 20 nM on human NK-3 receptor [1] (setting [3]), 20 nM at human NK-3 receptor [1] (setting [4]), 7000 nM at human NK-2 receptor and 21000 nM at human NK-1 receptor. For the same molecule, the IC50 at human NK-3 receptor [2] is 26 nM.
In the case of `C[C@@H]1c2nnc(-c3csc(C(F)(F)F)n3)n2CCN1C(=O)c1cc(F)c(F)c(F)c1` [Compound 15, (R)-(8-methyl-3-(2-(trifluoromethyl)thiazol-4-yl)-5,6-dihydro-[1,2,4]triazolo[4,3-a]pyrazin-7(8H)-yl)(3,4,5-trifluorophenyl)methanone], the “Exposure (% rPPB), bound drug fraction” value in the data set on plasma protein is 60%. In addition, the Ki on human NK-3 receptor [1] (setting [3]) came out at 13 nM; at human NK-3 receptor [1] (setting [4]), 13 nM; on human NK-2 receptor it was 3500 nM; at human NK-1 receptor it was 24000 nM. The half-maximal inhibitory concentration (IC50) on human NK-3 receptor [2] came out at 24 nM.
